Measured values reported in PubChem BioAssay (NCI).
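1) Cells in 96-well plates. 2) Compound, 48 h, 5 concentrations. 3) Linear interpolation between surrounding doses. 4) Unreached endpoint = highest concentration. TGI marks complete inhibition of growth.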

Key:
Assay in all cases: growth of human tumour cells (NCI), 48 h
[1] = test system: KM20L2 colon
[2] = test system: OVCAR-4 ovarian
[3] = test system: SK-OV-3 ovarian
[4] = test system: KM12 colon
[5] = test system: RPMI-8226 leukemia
[6] = test system: A549 NSCLC
[7] = test system: SF-295 CNS
[8] = test system: RXF 393 renal
[9] = test system: HCT-116 colon
[10] = test system: COLO 205 colon
[11] = test system: SK-MEL-2 melanoma
[12] = test system: HCT-15 colon
[13] = test system: MALME-3M melanoma
[14] = test system: M14 melanoma
[15] = test system: SF-539 CNS
[16] = test system: DMS 273 small cell lung
[17] = test system: DMS 114 small cell lung
[18] = test system: HCC-2998 colon
[19] = test system: CAKI-1 renal
[20] = test system: CCRF-CEM leukemia
[21] = test system: IGROV1 ovarian
[22] = test system: SN12C renal
[23] = test system: DLD-1 colon
[24] = test system: EKVX NSCLC
[25] = test system: SNB-75 CNS
[26] = test system: SF-268 CNS
[27] = test system: UACC-257 melanoma
[28] = test system: SK-MEL-5 melanoma
[29] = test system: LXFL 529 NSCLC
[30] = test system: HOP-18 NSCLC
[31] = test system: UO-31 renal
[32] = test system: OVCAR-8 ovarian
[33] = test system: ACHN renal
[34] = test system: SK-MEL-28 melanoma
[35] = test system: TK-10 renal
[36] = test system: HOP-92 NSCLC
[37] = test system: XF 498 CNS
[38] = test system: M19-MEL melanoma
[39] = test system: MOLT-4 leukemia
[40] = test system: K-562 leukemia
[41] = test system: NCI-H460 lung
[42] = test system: LOX IMVI melanoma
[43] = test system: 786-0 renal
[44] = test system: HOP-62 NSCLC
[45] = test system: NCI-H226 lung
[46] = test system: HL-60(TB) leukemia
[47] = test system: HT29 colon
[48] = test system: UACC-62 melanoma
[49] = test system: NCI-H23 lung
[50] = test system: U251 CNS
[51] = test system: OVCAR-3 ovarian
[52] = test system: SNB-78 CNS
[53] = test system: NCI-H522 lung
[54] = test system: SW-620 colon
[55] = test system: SNB-19 CNS
[56] = test system: SR leukemia
[57] = test system: A498 renal
[58] = test system: OVCAR-5 ovarian

`COc1cc2cc3c4c(cc(OC)c(OC)c4c2cc1OC)CCN3` gave a TGI [1] of 88.5 µM, a TGI [2] of over 100 µM and a TGI [3] of over 100 µM. For the same molecule, the TGI [4] was over 100 µM, the TGI [5] was 68 µM and the TGI [6] was over 100 µM. For the same molecule, the TGI [7] was over 100 µM, the TGI [8] was 85.8 µM and the TGI [9] was over 100 µM. For the same molecule, the TGI [10] was 63.2 µM, the TGI [11] was 59.7 µM and the TGI [12] was over 100 µM. It also gave a TGI [13] of over 100 µM, a TGI [14] of over 100 µM and a TGI [15] of 51.1 µM. It also gave a TGI [16] of over 100 µM, a TGI [17] of over 100 µM and a TGI [18] of over 100 µM. For the same molecule, the TGI [19] was over 100 µM, the TGI [20] was 77.2 µM and the TGI [21] was over 100 µM. The TGI [22] was over 100 µM, the TGI [23] was 73.8 µM and the TGI [24] was over 100 µM. The TGI [25] was over 100 µM, the TGI [26] was over 100 µM and the TGI [27] was over 100 µM. For the same molecule, the TGI [28] was over 100 µM, the TGI [29] was over 100 µM and the TGI [30] was over 100 µM. For the same molecule, the TGI [31] was over 100 µM, the TGI [32] was over 100 µM and the TGI [33] was over 100 µM. It also gave a TGI [34] of over 100 µM, a TGI [35] of over 100 µM and a TGI [36] of over 100 µM. For the same molecule, the TGI [37] was over 100 µM, the TGI [38] was 25.6 µM and the TGI [39] was over 100 µM. The TGI [40] was 81.6 µM, the TGI [41] was 82.6 µM and the TGI [42] was over 100 µM. For the same molecule, the TGI [43] was over 100 µM, the TGI [44] was over 100 µM and the TGI [45] was over 100 µM. It also gave a TGI [46] of 42.3 µM, a TGI [47] of 96.2 µM and a TGI [48] of 19.5 µM. For the same molecule, the TGI [49] was over 100 µM, the TGI [50] was over 100 µM and the TGI [51] was over 100 µM. The TGI [52] was over 100 µM, the TGI [53] was over 100 µM and the TGI [54] was 51.2 µM. It also gave a TGI [55] of over 100 µM.
`COc1ccc(N2C(=O)C3CC(c4ccc(C)cc4)c4c([nH]c5ccccc45)C3C2=O)cc1` (stereo not drawn) was tested, and the TGI [1] was over 100 µM, the TGI [2] was 27.5 µM and the TGI [3] was 93 µM. The TGI [4] was over 100 µM, the TGI [6] was 43.3 µM and the TGI [7] was over 86.8 µM. The TGI [56] was 4.55 µM, the TGI [9] was 17.2 µM and the TGI [10] was over 48.5 µM. The TGI [11] was over 100 µM, the TGI [12] was over 89.7 µM and the TGI [13] was 49.6 µM. The TGI [14] was over 89.2 µM, the TGI [15] was over 62.5 µM and the TGI [16] was over 100 µM. The TGI [17] was over 86 µM, the TGI [18] was over 100 µM and the TGI [19] was over 100 µM. It also gave a TGI [20] of over 45.6 µM, a TGI [21] of over 79.6 µM and a TGI [22] of 31.8 µM. The TGI [23] was over 100 µM, the TGI [24] was over 100 µM and the TGI [25] was 51 µM. The TGI [26] was over 76.3 µM, the TGI [27] was over 100 µM and the TGI [28] was over 100 µM. The TGI [57] was 55.6 µM, the TGI [29] was over 56.1 µM and the TGI [30] was 10.3 µM. For the same molecule, the TGI [31] was over 70.7 µM, the TGI [32] was 38.9 µM and the TGI [33] was over 63.8 µM. It also gave a TGI [34] of 99.7 µM, a TGI [35] of over 95.3 µM and a TGI [36] of 73.7 µM. For the same molecule, the TGI [37] was over 74 µM, the TGI [38] was over 100 µM and the TGI [39] was over 58.7 µM. For the same molecule, the TGI [40] was over 100 µM, the TGI [58] was over 100 µM and the TGI [41] was 31.8 µM. The TGI [42] was 26.4 µM, the TGI [43] was 26.6 µM and the TGI [44] was 53.7 µM. It also gave a TGI [45] of 28.1 µM, a TGI [46] of 30.9 µM and a TGI [47] of over 100 µM. It also gave a TGI [48] of over 100 µM, a TGI [49] of over 93.9 µM and a TGI [50] of 16.8 µM. For the same molecule, the TGI [51] was 12.3 µM, the TGI [52] was 98.7 µM and the TGI [53] was 51 µM. The TGI [54] was over 55.3 µM and the TGI [55] was over 56.3 µM.
Molecule `COCN1C(=O)C2CC(/C=C/C(N)=O)=CN2C(=O)c2ccccc21` (stereo not drawn) has a TGI [1] of over 100 µM, a TGI [2] of over 100 µM and a TGI [3] of over 100 µM. For the same molecule, the TGI [4] was over 100 µM, the TGI [5] was over 100 µM and the TGI [6] was over 100 µM. It also gave a TGI [7] of over 100 µM, a TGI [8] of over 100 µM and a TGI [9] of over 100 µM. For the same molecule, the TGI [10] was over 100 µM, the TGI [14] was over 100 µM and the TGI [15] was over 100 µM. The TGI [16] was over 100 µM, the TGI [17] was over 100 µM and the TGI [18] was over 100 µM. The TGI [20] was over 100 µM, the TGI [21] was over 100 µM and the TGI [22] was over 100 µM. The TGI [23] was over 100 µM, the TGI [24] was over 100 µM and the TGI [25] was over 100 µM. For the same molecule, the TGI [26] was over 100 µM, the TGI [28] was over 100 µM and the TGI [29] was over 100 µM. The TGI [30] was over 100 µM, the TGI [32] was over 100 µM and the TGI [34] was over 100 µM. It also gave a TGI [35] of over 100 µM, a TGI [37] of over 100 µM and a TGI [38] of over 100 µM. It also gave a TGI [39] of over 100 µM, a TGI [40] of over 100 µM and a TGI [41] of over 100 µM. For the same molecule, the TGI [42] was over 100 µM, the TGI [43] was over 100 µM and the TGI [44] was over 100 µM. The TGI [45] was over 100 µM, the TGI [46] was over 100 µM and the TGI [47] was over 100 µM. For the same molecule, the TGI [48] was over 100 µM, the TGI [49] was over 100 µM and the TGI [50] was over 100 µM. The TGI [51] was over 100 µM, the TGI [52] was over 100 µM and the TGI [53] was over 100 µM. It also gave a TGI [54] of over 100 µM and a TGI [55] of over 100 µM.
